Test results from PubChem BioAssay (NCI).
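Values below derive from 48-hour exposures of cells grown in 96-well plates, with endpoints linearly interpolated between the two concentrations bracketing the appropriate inhibition level. TGI: total growth inhibition.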

Experiments:
Assay in all cases: NCI anticancer screen, dose series, 48 h
786-0 renal = tested on: 786-0 renal
A498 renal = tested on: A498 renal
A549 NSCLC = tested on: A549 NSCLC
ACHN renal = tested on: ACHN renal
BT-549 breast = tested on: BT-549 breast
CAKI-1 renal = tested on: CAKI-1 renal
CCRF-CEM leukemia = tested on: CCRF-CEM leukemia
COLO 205 colon = tested on: COLO 205 colon
DU-145 prostate = tested on: DU-145 prostate
EKVX NSCLC = tested on: EKVX NSCLC
HCC-2998 colon = tested on: HCC-2998 colon
HCT-116 colon = tested on: HCT-116 colon
HCT-15 colon = tested on: HCT-15 colon
HL-60(TB) leukemia = tested on: HL-60(TB) leukemia
HOP-62 NSCLC = tested on: HOP-62 NSCLC
HOP-92 NSCLC = tested on: HOP-92 NSCLC
HS 578T breast = tested on: HS 578T breast
HT29 colon = tested on: HT29 colon
IGROV1 ovarian = tested on: IGROV1 ovarian
K-562 leukemia = tested on: K-562 leukemia
KM12 colon = tested on: KM12 colon
LOX IMVI melanoma = tested on: LOX IMVI melanoma
M14 melanoma = tested on: M14 melanoma
MALME-3M melanoma = tested on: MALME-3M melanoma
MCF7 breast = tested on: MCF7 breast
MDA-MB-231 breast = tested on: MDA-MB-231 breast
MDA-MB-435 = tested on: MDA-MB-435
MDA-N = tested on: MDA-N
MOLT-4 leukemia = tested on: MOLT-4 leukemia
NCI-H226 lung = tested on: NCI-H226 lung
NCI-H23 lung = tested on: NCI-H23 lung
NCI-H460 lung = tested on: NCI-H460 lung
NCI/ADR-RES ovarian = tested on: NCI/ADR-RES ovarian
OVCAR-3 ovarian = tested on: OVCAR-3 ovarian
OVCAR-4 ovarian = tested on: OVCAR-4 ovarian
OVCAR-5 ovarian = tested on: OVCAR-5 ovarian
OVCAR-8 ovarian = tested on: OVCAR-8 ovarian
PC-3 prostate = tested on: PC-3 prostate
RPMI-8226 leukemia = tested on: RPMI-8226 leukemia
RXF 393 renal = tested on: RXF 393 renal
SF-268 CNS = tested on: SF-268 CNS
SF-295 CNS = tested on: SF-295 CNS
SK-MEL-2 melanoma = tested on: SK-MEL-2 melanoma
SK-MEL-28 melanoma = tested on: SK-MEL-28 melanoma
SK-MEL-5 melanoma = tested on: SK-MEL-5 melanoma
SK-OV-3 ovarian = tested on: SK-OV-3 ovarian
SN12C renal = tested on: SN12C renal
SNB-19 CNS = tested on: SNB-19 CNS
SNB-75 CNS = tested on: SNB-75 CNS
SW-620 colon = tested on: SW-620 colon
T-47D breast = tested on: T-47D breast
TK-10 renal = tested on: TK-10 renal
U251 CNS = tested on: U251 CNS
UACC-257 melanoma = tested on: UACC-257 melanoma
UACC-62 melanoma = tested on: UACC-62 melanoma
UO-31 renal = tested on: UO-31 renal
NCI-H522 lung = tested on: NCI-H522 lung
SF-539 CNS = tested on: SF-539 CNS

CCN1CCC(O)(c2ccc(Oc3ccc(C)cc3)cc2)C(C(=O)c2ccc(Oc3ccc(C)cc3)cc2)C1 (configuration not stated)
TGI (786-0 renal): 17.2 µM | TGI (A498 renal): 6.39 µM | TGI (A549 NSCLC): 26.8 µM | TGI (ACHN renal): 25.9 µM | TGI (BT-549 breast): 22.4 µM | TGI (CAKI-1 renal): 25.8 µM | TGI (CCRF-CEM leukemia): 21.8 µM | TGI (COLO 205 colon): 26.1 µM | TGI (DU-145 prostate): 20.1 µM | TGI (EKVX NSCLC): 29 µM | TGI (HCC-2998 colon): 20.8 µM | TGI (HCT-116 colon): 19 µM | TGI (HCT-15 colon): 15.2 µM | TGI (HL-60(TB) leukemia): 3.7 µM | TGI (HOP-62 NSCLC): 35.5 µM | TGI (HOP-92 NSCLC): 21.7 µM | TGI (HS 578T breast): 48.3 µM | TGI (HT29 colon): 14.2 µM | TGI (IGROV1 ovarian): 25 µM | TGI (K-562 leukemia): > 100 µM | TGI (KM12 colon): 17.8 µM | TGI (LOX IMVI melanoma): 13.5 µM | TGI (M14 melanoma): 30.6 µM | TGI (MALME-3M melanoma): 29.7 µM | TGI (MCF7 breast): 8.41 µM | TGI (MDA-MB-231 breast): 20.4 µM | TGI (MDA-MB-435): 24.9 µM | TGI (MDA-N): 22.6 µM | TGI (MOLT-4 leukemia): 69.1 µM | TGI (NCI-H226 lung): 27.9 µM | TGI (NCI-H23 lung): 30.2 µM | TGI (NCI-H460 lung): 13.8 µM | TGI (NCI/ADR-RES ovarian): 28.2 µM | TGI (OVCAR-3 ovarian): 36.9 µM | TGI (OVCAR-4 ovarian): 17.3 µM | TGI (OVCAR-5 ovarian): 32.1 µM | TGI (OVCAR-8 ovarian): 28.2 µM | TGI (PC-3 prostate): 24.5 µM | TGI (RPMI-8226 leukemia): 4.26 µM | TGI (RXF 393 renal): 16.2 µM | TGI (SF-268 CNS): 32.9 µM | TGI (SF-295 CNS): 21.4 µM | TGI (SK-MEL-2 melanoma): 35.9 µM | TGI (SK-MEL-28 melanoma): 23.3 µM | TGI (SK-MEL-5 melanoma): 20.4 µM | TGI (SK-OV-3 ovarian): 29.7 µM | TGI (SN12C renal): 30.7 µM | TGI (SNB-19 CNS): 27.2 µM | TGI (SNB-75 CNS): 20.4 µM | TGI (SW-620 colon): 27.7 µM | TGI (T-47D breast): 33.7 µM | TGI (TK-10 renal): 20.8 µM | TGI (U251 CNS): 23.7 µM | TGI (UACC-257 melanoma): 26.7 µM | TGI (UACC-62 melanoma): 24.5 µM | TGI (UO-31 renal): 20.6 µM

O=C(O)C1CCCCC1c1c2ccc(=O)cc-2oc2cc(O)ccc12 (configuration not stated)
TGI (786-0 renal): > 100 µM | TGI (A498 renal): > 100 µM | TGI (A549 NSCLC): > 100 µM | TGI (ACHN renal): > 100 µM | TGI (BT-549 breast): > 100 µM | TGI (CAKI-1 renal): > 100 µM | TGI (CCRF-CEM leukemia): > 100 µM | TGI (COLO 205 colon): > 100 µM | TGI (DU-145 prostate): 66.7 µM | TGI (EKVX NSCLC): > 100 µM | TGI (HCC-2998 colon): > 100 µM | TGI (HCT-116 colon): > 100 µM | TGI (HCT-15 colon): > 100 µM | TGI (HL-60(TB) leukemia): > 100 µM | TGI (HOP-92 NSCLC): 41.1 µM | TGI (HS 578T breast): 96.7 µM | TGI (HT29 colon): > 100 µM | TGI (IGROV1 ovarian): 41.3 µM | TGI (K-562 leukemia): > 100 µM | TGI (KM12 colon): 49.1 µM | TGI (LOX IMVI melanoma): > 100 µM | TGI (M14 melanoma): 78.6 µM | TGI (MALME-3M melanoma): > 100 µM | TGI (MCF7 breast): > 100 µM | TGI (MDA-MB-231 breast): > 100 µM | TGI (MDA-MB-435): 49.3 µM | TGI (MDA-N): > 100 µM | TGI (MOLT-4 leukemia): > 100 µM | TGI (NCI-H23 lung): > 100 µM | TGI (NCI-H460 lung): > 100 µM | TGI (NCI-H522 lung): 62.1 µM | TGI (NCI/ADR-RES ovarian): > 100 µM | TGI (OVCAR-3 ovarian): 69.2 µM | TGI (OVCAR-4 ovarian): 88.1 µM | TGI (OVCAR-5 ovarian): > 100 µM | TGI (OVCAR-8 ovarian): 90.8 µM | TGI (PC-3 prostate): > 100 µM | TGI (RPMI-8226 leukemia): > 100 µM | TGI (RXF 393 renal): 62.6 µM | TGI (SF-268 CNS): > 100 µM | TGI (SF-295 CNS): > 100 µM | TGI (SF-539 CNS): 48.7 µM | TGI (SK-MEL-2 melanoma): > 100 µM | TGI (SK-MEL-28 melanoma): > 100 µM | TGI (SK-MEL-5 melanoma): > 100 µM | TGI (SK-OV-3 ovarian): 96.5 µM | TGI (SN12C renal): > 100 µM | TGI (SNB-19 CNS): > 100 µM | TGI (SNB-75 CNS): 72.1 µM | TGI (SW-620 colon): > 100 µM | TGI (T-47D breast): 54.4 µM | TGI (TK-10 renal): > 100 µM | TGI (U251 CNS): 96.9 µM | TGI (UACC-257 melanoma): > 100 µM | TGI (UACC-62 melanoma): > 100 µM | TGI (UO-31 renal): > 100 µM
